{
  "source": "patent US20220395496A1",
  "about": "(Hoffmann-La Roche Inc., priority 2019, published 2022)",
  "data": [
    {"target": "T1, human TLR9 (Homo sapiens, UniProt Q9NR96)", "T1 sequence (Q9NR96 26-1032)": "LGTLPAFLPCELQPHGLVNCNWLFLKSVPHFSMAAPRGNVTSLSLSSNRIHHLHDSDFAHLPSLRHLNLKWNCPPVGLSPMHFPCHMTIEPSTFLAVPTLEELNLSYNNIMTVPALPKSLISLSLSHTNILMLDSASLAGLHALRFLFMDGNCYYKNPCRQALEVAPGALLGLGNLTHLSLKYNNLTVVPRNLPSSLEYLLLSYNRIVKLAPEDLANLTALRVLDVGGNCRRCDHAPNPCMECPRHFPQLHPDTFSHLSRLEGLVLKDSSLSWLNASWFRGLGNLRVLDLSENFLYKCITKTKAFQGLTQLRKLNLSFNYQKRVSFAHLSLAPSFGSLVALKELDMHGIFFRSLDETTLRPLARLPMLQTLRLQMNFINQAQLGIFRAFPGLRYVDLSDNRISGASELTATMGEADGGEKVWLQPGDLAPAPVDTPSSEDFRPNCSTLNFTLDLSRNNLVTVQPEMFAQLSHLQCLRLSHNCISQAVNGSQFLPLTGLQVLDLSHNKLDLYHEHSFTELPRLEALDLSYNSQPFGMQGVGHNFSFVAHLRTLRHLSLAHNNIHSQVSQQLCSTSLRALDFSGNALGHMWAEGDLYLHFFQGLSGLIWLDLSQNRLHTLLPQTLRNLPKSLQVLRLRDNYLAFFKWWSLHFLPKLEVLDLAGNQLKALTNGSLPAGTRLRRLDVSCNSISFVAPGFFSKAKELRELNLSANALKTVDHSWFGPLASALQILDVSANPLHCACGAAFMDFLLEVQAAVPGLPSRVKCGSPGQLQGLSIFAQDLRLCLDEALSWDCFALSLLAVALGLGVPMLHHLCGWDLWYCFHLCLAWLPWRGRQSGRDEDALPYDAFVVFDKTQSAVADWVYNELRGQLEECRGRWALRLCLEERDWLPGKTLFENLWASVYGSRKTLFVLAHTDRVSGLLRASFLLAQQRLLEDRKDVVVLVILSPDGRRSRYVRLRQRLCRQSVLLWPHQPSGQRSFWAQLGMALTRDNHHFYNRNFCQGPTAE", "test": "HEK293-Blue-hTLR-9 cells assay (SEAP reporter, ODN2006 stimulation)", "type": "cell-based", "conditions": "HEK293-Blue-hTLR9 cells, ODN2006, 20 hrs", "protocol": "The following tests were carried out in order to determine the activity of the compounds of this invention in HEK293-Blue-hTLR-7/8/9 cells assay.\nHEK293-Blue-hTLR-9 Cells Assay:\nA stable HEK293-Blue-hTLR-9 cell line was purchased from InvivoGen (Cat. #: hkb-htlr9, San Diego, Calif., USA). These cells were originally designed for studying the stimulation of human TLR9 by monitoring the activation of NF-κB. A SEAP (secreted embryonic alkaline phosphatase) reporter gene was placed under the control of the IFN-β minimal promoter fused to five NF-κB and AP-1-binding sites. The SEAP was induced by activating NF-κB and AP-1 via stimulating HEK-Blue hTLR9 cells with TLR9 ligands. Therefore the reporter expression was declined by TLR9 antagonist under the stimulation of a ligand, such as ODN2006 (Cat. #: tlr1-2006-1, Invivogen, San Diego, Calif., USA), for incubation of 20 hrs. The cell culture supernatant SEAP reporter activity was determined using QUANTI-Blue™ kit (Cat. #: rep-qb1, Invivogen, San Diego, Calif., USA) at a wavelength of 640 nm, a detection medium that turns purple or blue in the presence of alkaline phosphatase.\nHEK293-Blue-hTLR9 cells were incubated at a density of 250,000˜450,000 cells/mL in a volume of 170 μL in a 96-well plate in Dulbecco's Modified Eagle's medium (DMEM) containing 4.5 g/L glucose, 50 U/mL penicillin, […], 2 mM L-glutamine, 10% (v/v) heat-inactivated fetal bovine serum with addition of 20 μL test compound in a serial dilution in the presence of final DMSO at 1% and 10 μL of 20 uM ODN2006 in above DMEM, perform incubation under 37° C. in a CO2 incubator for 20 hrs. Then 20 μL of the supernatant from each well was incubated with 180 μL Quanti-blue substrate solution at 37° C. for 2 hrs and the absorbance was read at 620˜655 nm using a spectrophotometer. The signalling pathway that TLR9 activation leads to downstream NF-κB activation has been widely accepted, and therefore similar reporter assay was modified for evaluating TLR9 antagonist.", "units": {"IC50": "nM"}, "values": [
      {"compound": "Cc1cc(-c2ccc(CN[C@@H]3C[C@H](C)CN(c4ccc(C#N)c5ncccc45)C3)cc2)cc(C)n1", "note": "[Example 15, 5-[(3R,5S)-3-[[4-(2,6-dimethyl-4-pyridyl)phenyl]methylamino]-5-methyl-1-piperidyl]quinoline-8-carbonitrile]", "IC50": 126},
      {"compound": "C[C@H]1C[C@@H](NCc2cnc(N3CCN(C)CC3)nc2)CN(c2ccc(C#N)c3ncccc23)C1", "note": "[Example 16, 5-[(3S,5R)-3-methyl-5-[[2-(4-methylpiperazin-1-yl)pyrimidin-5-yl]methylamino]-1-piperidyl]quinoline-8-carbonitrile]", "IC50": 77},
      {"compound": "C[C@H]1C[C@@H](NCc2cnc(N3CCNCC3)nc2)CN(c2ccc(C#N)c3ncccc23)C1", "note": "[Example 17, 5-[(3S,5R)-3-methyl-5-[(2-piperazin-1-ylpyrimidin-5-yl)methylamino]-1-piperidyl]quinoline-8-carbonitrile]", "IC50": 60},
      {"compound": "C[C@H]1C[C@@H](NCc2ccc(N3CCN(C)CC3)cn2)CN(c2ccc(C#N)c3ncsc23)C1", "note": "[Example 18, 7-[(3S,5R)-3-methyl-5-[[5-(4-methylpiperazin-1-yl)-2-pyridyl]methylamino]-1-piperidyl]-1,3-benzothiazole-4-carbonitrile]", "IC50": 116},
      {"compound": "C[C@H]1C[C@@H](NCc2ccc(N3CCNCC3)cc2)CN(c2ccc(C#N)n3nccc23)C1", "note": "[Example 21, 4-[(3S,5R)-3-methyl-5-[(4-piperazin-1-ylphenyl)methylamino]-1-piperidyl]pyrazolo[1,5-a]pyridine-7-carbonitrile]", "IC50": 94},
      {"compound": "C[C@H]1C[C@@H](NCc2ccc(N3CCNCC3)cc2)CN(c2ccc(Cl)c3ncccc23)C1", "note": "[Example 22, (3R,5S)-1-(8-chloro-5-quinolyl)-5-methyl-N-[(4-piperazin-1-ylphenyl)methyl]piperidin-3-amine]", "IC50": 183},
      {"compound": "C[C@H]1C[C@@H](N2Cc3cc(N4CCNCC4)cnc3C2)CN(c2ccc(C#N)c3ncccc23)C1", "note": "[Example 23, 5-[(3S,5R)-3-methyl-5-(3-piperazin-1-yl-5,7-dihydropyrrolo[3,4-b]pyridin-6-yl)-1-piperidyl]quinoline-8-carbonitrile]", "IC50": 92},
      {"compound": "C[C@H]1C[C@@H](NCc2ncc(N3CCNCC3)cn2)CN(c2ccc(C#N)c3ncccc23)C1", "note": "[Example 25, 5-[(3S,5R)-3-methyl-5-[(5-piperazin-1-ylpyrimidin-2-yl)methylamino]-1-piperidyl]quinoline-8-carbonitrile]", "IC50": 61},
      {"compound": "CC(N[C@@H]1C[C@H](C)CN(c2ccc(C#N)c3ncccc23)C1)c1ccc(N2CCNCC2)cc1", "note": "(stereo partly drawn) [Example 26, 5-[(3S,5R)-3-methyl-5-[1-(4-piperazin-1-ylphenyl)ethylamino]-1-piperidyl]quinoline-8-carbonitrile]", "IC50": 55},
      {"compound": "C[C@H]1C[C@@H](NCc2cnc(N3CCN[C@H](C)C3)nc2)CN(c2ccc(C#N)c3ncccc23)C1", "note": "[Example 28, 5-[(3S,5R)-3-methyl-5-[[2-[(3R)-3-methylpiperazin-1-yl]pyrimidin-5-yl]methylamino]-1-piperidyl]quinoline-8-carbonitrile]", "IC50": 48},
      {"compound": "C[C@H]1C[C@@H](NCc2cnc(N3CCN[C@@H](C)C3)nc2)CN(c2ccc(C#N)c3ncccc23)C1", "note": "[Example 29, 5-[(3S,5R)-3-methyl-5-[[2-[(3S)-3-methylpiperazin-1-yl]pyrimidin-5-yl]methylamino]-1-piperidyl]quinoline-8-carbonitrile]", "IC50": 32},
      {"compound": "C[C@H]1C[C@@H](NCc2ccc3c(n2)CCNC3)CN(c2ccc(C#N)c3ncccc23)C1", "note": "[Example 30, 5-[(3S,5R)-3-methyl-5-(5,6,7,8-tetrahydro-1,6-naphthyridin-2-ylmethylamino)-1-piperidyl]quinoline-8-carbonitrile]", "IC50": 33},
      {"compound": "C[C@H]1C[C@@H](NCc2cnc(N3CCNCC3)cn2)CN(c2ccc(C#N)c3ncccc23)C1", "note": "[Example 31, 5-[(3S,5R)-3-methyl-5-[(5-piperazin-1-ylpyrazin-2-yl)methylamino]-1-piperidyl]quinoline-8-carbonitrile]", "IC50": 47},
      {"compound": "C[C@H]1C[C@@H](NCc2ccccc2)CN(c2ccc(C#N)c3ncccc23)C1", "note": "[Example R1, reference compound]", "IC50": 1870},
      {"compound": "C[C@H]1C[C@@H](N2Cc3ccccc3C2)CN(c2ccc(C#N)c3ncccc23)C1", "note": "[Example R2, reference compound]", "IC50": 8660}
    ]}
  ]
}
